Publication PMC4309423, “Total synthesis of periploside A, a unique pregnane hexasaccharide with potent immunosuppressive effects” (Nature Communications, 2015)

Tests used:
mice models = system: mice models; parameters: method as in PMID 16204471, PMID 16751252; conditions: cited from earlier work
[1] = system: ConA-induced T-lymphocyte proliferation (spleen cells from BALB/C mice); assay: T cell function assay: ConA-induced T-lymphocyte proliferation ([3H]-thymidine uptake); type: cell-based; conditions: for IC50: Mus musculus, ConA (5 μg/mL)-induced T-lymphocyte proliferation, 48 h, [3H]-thymidine uptake
Experimental: Supplementary Figure 63. Inhibition of concanavalin A (ConA)-induced
T-lymphocyte proliferation by synthetic compounds 1, 31, and 41-43.
(§1) Bioassay for the immunosuppressive activities17
(§2) Preparation of spleen cells from mice
BALB/C mice were sacrificed and spleens were removed aseptically. A single cell suspension was prepared after cell debris and clumps were removed. Erythrocytes were lysed using ammonium chloride buffer solution. The isolated lymphocytes were washed 3 times with PBS containing 2% FBS, and were re-suspended in RPMI 1640 medium at the indicated concentration. […]
1 x 10^6 of fresh spleen cells were cultured for 48 h at the same conditions as mentioned above. The cultures were stimulated with 5 µg/mL of concanavalin A (ConA) to induce T cells proliferative responses. The compounds were added to cultures with indicated concentrations to test their bioactivities. Proliferation was assessed in terms of uptake of [3H]-thymidine during last 8 h culture pulsing with 25 µCi of [3H]-thymidine for each well, and then cells were harvested onto glass fiber filters by a Basic 96 harvester. The incorporated radioactivity was counted by a liquid scintillation counter (1540 MicroBeta Trilux, Perkin–Elmer Life Sciences).

T cell = system: T cell; parameters: method as in PMID 18835000, PMID 21843896; conditions: toxicity; natural product; cited from earlier work
[2] = system: T-lymphocyte (spleen cells from BALB/C mice); assay: Cytotoxicity assay (MTT) on fresh spleen cells; type: cell-based; conditions: synthetic vs natural periploside A
Experimental: (§3) Supplementary Figure 62. Inhibition of the growth of T-lymphocytes by synthetic compounds 1, 31, and 41-43. […]
as §1, §2
(§4) BALB/C mice were sacrificed and spleens were removed aseptically. A single cell suspension was prepared after cell debris and clumps were removed. Erythrocytes were lysed using ammonium chloride buffer solution. The isolated lymphocytes were washed 3 times with PBS containing 2% FBS, and were re-suspended in RPMI 1640 medium at the indicated concentration.
(§5) Fresh spleen cells ([…]) were cultured in 96-well flat plates with 200 µL of RPMI 1640 media containing 10% FBS, 100 U/mL penicillin and 100 µg/mL streptomycin in a humidified, 37 °C, 5% CO2-containing incubator for 48 h, in the presence or absence of various concentrations of the compounds. 18 µL of MTT (5 mg/mL) was added to each well at the final 5 h culture. Then 90 µ L of lysis buffer (10% SDS, 50% DMF, pH 7.2) was added to each well for 6–7 h and the absorbance values at 570 nm were read by microplate reader (Bio-Rad, Model 550). […]

[3] = Cytotoxicity assay (MTT) on fresh spleen cells; type: cell-based, mice; conditions: BALB/C, fresh spleen cells (T-lymphocytes); T-lymphocyte (mouse spleen cells), 48 h, MTT
Experimental: as §3, §1, §2, §4, §5

[4] = system: ConA-induced T cell proliferation; parameters: method as in PMID 18835000, PMID 21843896; conditions: natural product, cited from earlier work

| Compound | immunosuppressive effects in mice models (mice models) | IC50 [1] [nM] | activity against ConA-induced T-lymphocyte proliferation compared with the natural product ([1]; synthetic vs natural periploside A) | CC50 (T cell) [nM] | toxicity against T-lymphocyte compared with the natural product [2] | CC50 at 48 h [3] [nM] | IC50 ([4]; ConA-induced T cell proliferation) [nM] | inhibition of ConA-induced T cell proliferation compared with reference drugs [4] |
| --- | --- | --- | --- | --- | --- | --- | --- | --- |
| COC1CC(OC2C(C)OC3(CC2OC)OCOC2CC(OC(C)C4(O)CCC5C6CC=C7CC(O)CCC7(C)C6CCC54C)OC(C)C2O3)OC(C)C1OC1CC(OC)C(OC2CC(OC)C(OC3OC(C)C(O)C(OC)C3OC(C)=O)C(C)O2)C(C)O1 (stereo not shown) [Periploside A (1), Periploside A] | significant | 170 ± 40 | similar | 10100 | similar | 2100 ± 320 | 640 | as potently as rapamycin and cyclosporin A |
| CO[C@@H]1C[C@]2(OCO[C@@H]3C[C@H](O[C@@H](C)[C@@]4(O)CCC5C6CC=C7C[C@@H](O)CC[C@]7(C)C6CC[C@@]54C)O[C@H](C)[C@H]3O2)O[C@H](C)[C@H]1O (stereo partly shown) [Disaccharide 42] |  | 6200 ± 3200 |  |  |  | 12800 ± 520 |  |  |
| CO[C@H]1[C@@H](O)[C@@H](C)O[C@@H](O[C@H]2[C@@H](OC)C[C@H](O[C@H]3[C@@H](OC)C[C@H](O[C@H]4[C@@H](OC)C[C@H](O[C@@H]5[C@@H](C)O[C@]6(C[C@H]5OC)OCO[C@@H]5C[C@H](O[C@@H](C)[C@@]7(O)CCC8C9CC=C%10C[C@@H](O)CC[C@]%10(C)C9CC[C@@]87C)O[C@H](C)[C@H]5O6)O[C@@H]4C)O[C@@H]3C)O[C@@H]2C)[C@@H]1OC(C)=O (stereo partly drawn) [C1′′-epi-periploside A (31), C1′′-epi-periploside A] |  | 410 ± 150 |  |  |  | 1580 ± 190 |  |  |
| CO[C@H]1[C@@H](O)[C@@H](C)O[C@@H](O[C@H]2[C@@H](OC)C[C@H](O[C@H]3[C@@H](OC)C[C@H](O[C@H]4[C@@H](OC)C[C@@H](O[C@@H]5[C@@H](C)O[C@@]6(C[C@H]5OC)OCO[C@@H]5C[C@H](O[C@@H](C)[C@@]7(O)CCC8C9CC=C%10C[C@@H](O)CC[C@]%10(C)C9CC[C@@]87C)O[C@H](C)[C@H]5O6)O[C@@H]4C)O[C@@H]3C)O[C@@H]2C)[C@@H]1OC(C)=O (stereo partly drawn) [C1′′′-epi-periploside A (41), C1′′′-epi-periploside A] |  | 1960 ± 430 |  |  |  | 11400 ± 3660 |  |  |
| CO[C@@H]1C[C@]2(OCO[C@@H]3C[C@@H](O[C@@H](C)[C@@]4(O)CCC5C6CC=C7C[C@@H](O)CC[C@]7(C)C6CC[C@@]54C)O[C@H](C)[C@H]3O2)O[C@H](C)[C@H]1O (stereo partly shown) [Disaccharide 43] |  | 3700 ± 2250 |  |  |  | 27700 ± 6610 |  |  |
